Tests used:
Assay type in all cases: binding
RXFP3 = biological target: T1, RXFP3 (Homo sapiens, UniProt Q9NSD7); test: NanoBRET screen HiBiT-RXFP3 in HEK293; conditions: RXFP3
T1 construct: purchased Promega (in-house HiBiT-GPCR construct library, NanoBRET)
T1 sequence (Q9NSD7 1-469): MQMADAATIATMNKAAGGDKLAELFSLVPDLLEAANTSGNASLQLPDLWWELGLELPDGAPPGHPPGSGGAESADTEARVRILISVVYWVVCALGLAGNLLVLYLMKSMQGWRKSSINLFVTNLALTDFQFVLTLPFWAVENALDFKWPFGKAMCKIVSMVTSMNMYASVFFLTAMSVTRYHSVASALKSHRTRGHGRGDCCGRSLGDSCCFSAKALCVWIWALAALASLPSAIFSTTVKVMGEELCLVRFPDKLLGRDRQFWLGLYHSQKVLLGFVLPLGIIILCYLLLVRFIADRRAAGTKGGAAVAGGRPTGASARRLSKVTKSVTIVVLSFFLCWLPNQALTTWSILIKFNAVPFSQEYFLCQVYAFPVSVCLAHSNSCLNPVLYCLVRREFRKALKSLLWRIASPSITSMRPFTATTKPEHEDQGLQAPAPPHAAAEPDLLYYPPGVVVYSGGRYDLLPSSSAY
Procedure: (§1) Each tracer candidate was screened across the entire library of HiBiT-GPCR constructs using NanoBRET as the detection modality. As depicted in Figure 4A, the specificity of interactions was evaluated through decrease in BRET due to competitive displacement of a bound tracer by excess parental compound. Each tracer was analyzed for binding to each HiBiT-GPCR fusion in the absence and in the presence of competing parental compound. Briefly, HEK293 cells were transfected with HiBiT-GPCR constructs diluted into promoterless DNA to reduce expression and maximize translocation to the cell surface. Each tracer candidate was then screened at concentrations of 1 μM and 0.1 μM across cells expressing these fusions. Cells were treated for 1.5 h with tracer either alone or in the presence of 20 μM competing parental compound (i.e., control). BRET was measured upon addition of purified LgBiT and subsequent complementation with HiBiT genetically fused to a GPCR. The specificity of interactions was assessed through a decrease in BRET signal due to competitive displacement of the bound tracer. To further gauge the robustness of these interactions, the fold response over the control (i.e., BRETtracer/BRETcontrol) was calculated. We chose a 1.5-fold response, which translates to ≥7-fold signal over noise as the minimal threshold required to score an interaction as positive. […]. Below we highlight the screening results obtained for our exemplary fluorescent tracers based on Clozapine, Amitriptyline and AZD1283.
(§2) HiBiT-GPCR DNA constructs were diluted in 10 mM Tris pH 8 to a final concentration of 0.01 μg/μL, arrayed in 96-well plates and stored at −20 °C. For transfection, HEK293 cells were suspended in Opti-MEM (without phenol red) supplemented with 2% fetal bovine serum (Seradigm) and 100 units/mL penicillin–streptomycin (Gibco) at a final concentration of 220,000 cells/mL and dispensed into white 96-well plates at 90 μL/well. Subsequent transfections and screens were carried using an Agilent Bravo Automated Liquid Handling Platform. First, the 96-well HiBiT DNA arrays were diluted 25-fold in Opti-MEM (without serum or phenol red) to a final concentration of 0.0004 μg/μL and 20 μL of the diluted DNAs were transferred into new 96-well plates. Next, promoterless carrier DNA (1 μg/μL) was diluted 25-fold (0.04 μg/μL) and then dispensed into the diluted arrays at 20 μL/well. Following brief mixing, Viafect transfection reagent (Promega) diluted 16-fold into Opti-MEM was dispensed into the plates at 40 μL/well. After mixing by pipetting, plates were incubated for 10 min on the pipetting station deck. The DNA-transfection reagent complexes were then added to plates containing cells. To facilitate the screen, 10 μL of DNA-transfection reagent complexes were added in duplicates to the top 4 and bottom 4 rows, resulting in two identical 48-well arrays per plate. Plates with transfected cells were incubated for 18–20 h at 37 °C/5% CO2. A screen of each tracer across the entire library using two different concentrations requires duplicate plates of transfected cells. Depending on the number of tracers being screened, transfections can be scaled up using the same ratios. The next day, for each tracer, four 20× screening solutions in tracer dilution buffer (Promega) were prepared: two duplicates at final concentration of 20 μM and two duplicates at a final concentration of 2 μM. A competing unmodified compound was added to one of each duplicate at a final concentration of 400 μM. The four resulting solutions were diluted 4-fold in Opti-MEM without serum or phenol red to generate 5× solutions (5 µM and 0.5 µM tracer +/− 100 μM competing compound). To screen the library, a BioTek MultiFlo FX liquid dispenser was used to dispense 22.5 µL of tracer solution to the top 4 rows and 22.5 µL tracer + competing compound solution to the 4 bottom rows. Plates were briefly mixed on an orbital shaker and incubated for 1.5 h at room temperature. […]

CCR4 = biological target: T2, CCR4 (Homo sapiens, UniProt P51679); test: NanoBRET screen HiBiT-CCR4 in HEK293; conditions: CCR4
T2 construct: purchased Promega (in-house HiBiT-GPCR construct library, NanoBRET)
T2 sequence (P51679 1-360): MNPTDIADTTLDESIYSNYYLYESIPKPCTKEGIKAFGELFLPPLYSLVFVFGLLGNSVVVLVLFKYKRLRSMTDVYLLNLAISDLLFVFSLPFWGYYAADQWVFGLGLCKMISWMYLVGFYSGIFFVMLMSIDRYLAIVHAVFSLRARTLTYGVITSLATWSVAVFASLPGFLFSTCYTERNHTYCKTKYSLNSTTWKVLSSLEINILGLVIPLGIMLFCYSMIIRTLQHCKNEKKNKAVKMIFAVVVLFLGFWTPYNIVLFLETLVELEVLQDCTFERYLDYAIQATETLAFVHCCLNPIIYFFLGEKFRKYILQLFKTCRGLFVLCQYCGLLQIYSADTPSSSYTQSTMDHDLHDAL
Procedure: as §1, §2

CX3CR1 = biological target: T3, CX3CR1 (Homo sapiens, UniProt P49238); test: NanoBRET screen HiBiT-CX3CR1 in HEK293; conditions: CX3CR1
T3 construct: purchased Promega (in-house HiBiT-GPCR construct library, NanoBRET)
T3 sequence (P49238 1-355): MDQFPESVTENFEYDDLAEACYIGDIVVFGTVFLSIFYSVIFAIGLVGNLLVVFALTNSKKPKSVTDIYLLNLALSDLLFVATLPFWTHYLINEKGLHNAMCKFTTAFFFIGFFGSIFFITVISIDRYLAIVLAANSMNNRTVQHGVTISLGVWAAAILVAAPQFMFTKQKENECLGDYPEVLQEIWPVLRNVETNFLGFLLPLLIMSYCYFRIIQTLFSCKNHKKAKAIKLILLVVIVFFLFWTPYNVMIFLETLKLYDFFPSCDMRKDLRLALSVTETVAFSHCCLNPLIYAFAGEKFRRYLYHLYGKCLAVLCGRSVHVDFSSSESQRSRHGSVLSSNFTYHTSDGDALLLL
Procedure: as §1, §2

SMILES | NanoBRET Fold Response (RXFP3; tracer 0.1μM) | NanoBRET Fold Response (RXFP3; tracer 1μM) | NanoBRET Fold Response (CCR4; tracer 0.1μM) | NanoBRET Fold Response (CCR4; tracer 1μM) | NanoBRET Fold Response (CX3CR1; tracer 0.1μM) | NanoBRET Fold Response (CX3CR1; tracer 1μM) | NanoBRET Fold Response (RXFP3; 0.1μM) | NanoBRET Fold Response (RXFP3; 1μM) | NanoBRET Fold Response (CCR4; 0.1μM) | NanoBRET Fold Response (CCR4; 1μM) | NanoBRET Fold Response (CX3CR1; 0.1μM) | NanoBRET Fold Response (CX3CR1; 1μM)
O=C(CCc1ccc2n1[B-](F)(F)[N+]1=C(c3ccc[nH]3)C=CC1=C2)NCc1ccc(C(=O)NCCOCCC(=O)N[C@@H]2CC[C@@]3(O)[C@H]4Cc5ccc(O)c6c5[C@@]3(CCN4CC3CC3)[C@H]2O6)cc1 [Naltrexone-3-NB590] | 0.98 | 1.05 | 0.32 | 0.97 | 1.32 | 0.81 | – | – | – | – | – | –
Cc1cc2c(s1)Nc1ccccc1N=C2N1CCN(CCCNC(=O)CCOCCOCCOCCOCCNC(=O)CCc2ccc3n2[B-](F)(F)[N+]2=C(c4ccc[nH]4)C=CC2=C3)CC1 [Olanzapine-a-2-NB590] | 0.97 | 1.11 | 1.01 | 0.92 | 1.03 | 0.97 | – | – | – | – | – | –
O=C(CCc1ccc2n1[B-](F)(F)[N+]1=C(c3ccc[nH]3)C=CC1=C2)NCc1ccc(C(=O)NCCOCCOCCNCC(O)COc2cccc3ccccc23)cc1 (stereo not drawn) [Propranolol-3-NB590] | – | – | – | – | – | – | 1.14 | 1.08 | 1.11 | 1.03 | 1.08 | 1.03
O=C(CCc1ccc2n1[B-](F)(F)[N+]1=C(c3ccc[nH]3)C=CC1=C2)NCCOCCOCCNC(=O)OCCOCCN1CCN(C2=Nc3ccccc3Sc3ccccc32)CC1 [Quetiapine-a-2-NB590] | 0.88 | 0.92 | 1.02 | 0.94 | 0.90 | 0.95 | – | – | – | – | – | –
Cc1nc2n(c(=O)c1CCN1CCC(c3noc4cc(F)ccc34)CC1)CCCC2OC(=O)NCCOCCOCCOCCOCCNC(=O)CCc1ccc2n1[B-](F)(F)[N+]1=C(c3ccc[nH]3)C=CC1=C2 (stereo not drawn) [Risperidone-2-NB590] | 1.00 | 1.00 | 1.01 | 1.22 | 1.06 | 1.02 | – | – | – | – | – | –
CC(C)N(CC[C@H](c1ccccc1)c1cc(CCNC(=O)CCOCCOCCOCCOCCNC(=O)CCc2ccc3n2[B-](F)(F)[N+]2=C(c4ccc[nH]4)C=CC2=C3)ccc1O)C(C)C [Tolterodine-2-NB590] | 1.18 | 1.10 | 1.29 | 1.16 | 1.32 | 1.06 | – | – | – | – | – | –
CC(C)N(CC[C@H](c1ccccc1)c1cc(CCNC(=O)c2ccc(CNC(=O)CCc3ccc4n3[B-](F)(F)[N+]3=C(c5ccc[nH]5)C=CC3=C4)cc2)ccc1O)C(C)C [Tolterodine-BZ-NB590] | 1.01 | 1.19 | 0.95 | 0.86 | 0.94 | 0.98 | – | – | – | – | – | –
CCCn1c(=O)c2[nH]c(-c3ccc(OCC(=O)NCCNC(=O)CCOCCNC(=O)c4ccc(CNC(=O)CCc5ccc6n5[B-](F)(F)[N+]5=C(c7ccc[nH]7)C=CC5=C6)cc4)cc3)nc2n(CCC)c1=O [XAC-3-NB590] | 0.95 | 0.92 | 1.36 | 1.29 | 0.87 | 0.83 | – | – | – | – | – | –

Source: paper PMC8151276, “An Integrated Approach toward NanoBRET Tracers for Analysis of GPCR Ligand Engagement” (Molecules, 2021)
